# pIC50: −log10 of the molar value.
# Biological target: T1, Nav1.7 (or SCN9A) channel; HEK cells stably transfected with hSCN9A (Homo sapiens, UniProt Q15858)
# T1 construct: expressed in transfected cells
# Test: Nav1.7 block, PatchXpress 7000 automated whole-cell voltage clamp, estimated IC50 (EIC50)
# Type: cell-based
# Conditions: estimated IC50; hSCN9A HEK cells, PatchXpress platform; Examples 283-814
# T1 sequence (Q15858 whole entry): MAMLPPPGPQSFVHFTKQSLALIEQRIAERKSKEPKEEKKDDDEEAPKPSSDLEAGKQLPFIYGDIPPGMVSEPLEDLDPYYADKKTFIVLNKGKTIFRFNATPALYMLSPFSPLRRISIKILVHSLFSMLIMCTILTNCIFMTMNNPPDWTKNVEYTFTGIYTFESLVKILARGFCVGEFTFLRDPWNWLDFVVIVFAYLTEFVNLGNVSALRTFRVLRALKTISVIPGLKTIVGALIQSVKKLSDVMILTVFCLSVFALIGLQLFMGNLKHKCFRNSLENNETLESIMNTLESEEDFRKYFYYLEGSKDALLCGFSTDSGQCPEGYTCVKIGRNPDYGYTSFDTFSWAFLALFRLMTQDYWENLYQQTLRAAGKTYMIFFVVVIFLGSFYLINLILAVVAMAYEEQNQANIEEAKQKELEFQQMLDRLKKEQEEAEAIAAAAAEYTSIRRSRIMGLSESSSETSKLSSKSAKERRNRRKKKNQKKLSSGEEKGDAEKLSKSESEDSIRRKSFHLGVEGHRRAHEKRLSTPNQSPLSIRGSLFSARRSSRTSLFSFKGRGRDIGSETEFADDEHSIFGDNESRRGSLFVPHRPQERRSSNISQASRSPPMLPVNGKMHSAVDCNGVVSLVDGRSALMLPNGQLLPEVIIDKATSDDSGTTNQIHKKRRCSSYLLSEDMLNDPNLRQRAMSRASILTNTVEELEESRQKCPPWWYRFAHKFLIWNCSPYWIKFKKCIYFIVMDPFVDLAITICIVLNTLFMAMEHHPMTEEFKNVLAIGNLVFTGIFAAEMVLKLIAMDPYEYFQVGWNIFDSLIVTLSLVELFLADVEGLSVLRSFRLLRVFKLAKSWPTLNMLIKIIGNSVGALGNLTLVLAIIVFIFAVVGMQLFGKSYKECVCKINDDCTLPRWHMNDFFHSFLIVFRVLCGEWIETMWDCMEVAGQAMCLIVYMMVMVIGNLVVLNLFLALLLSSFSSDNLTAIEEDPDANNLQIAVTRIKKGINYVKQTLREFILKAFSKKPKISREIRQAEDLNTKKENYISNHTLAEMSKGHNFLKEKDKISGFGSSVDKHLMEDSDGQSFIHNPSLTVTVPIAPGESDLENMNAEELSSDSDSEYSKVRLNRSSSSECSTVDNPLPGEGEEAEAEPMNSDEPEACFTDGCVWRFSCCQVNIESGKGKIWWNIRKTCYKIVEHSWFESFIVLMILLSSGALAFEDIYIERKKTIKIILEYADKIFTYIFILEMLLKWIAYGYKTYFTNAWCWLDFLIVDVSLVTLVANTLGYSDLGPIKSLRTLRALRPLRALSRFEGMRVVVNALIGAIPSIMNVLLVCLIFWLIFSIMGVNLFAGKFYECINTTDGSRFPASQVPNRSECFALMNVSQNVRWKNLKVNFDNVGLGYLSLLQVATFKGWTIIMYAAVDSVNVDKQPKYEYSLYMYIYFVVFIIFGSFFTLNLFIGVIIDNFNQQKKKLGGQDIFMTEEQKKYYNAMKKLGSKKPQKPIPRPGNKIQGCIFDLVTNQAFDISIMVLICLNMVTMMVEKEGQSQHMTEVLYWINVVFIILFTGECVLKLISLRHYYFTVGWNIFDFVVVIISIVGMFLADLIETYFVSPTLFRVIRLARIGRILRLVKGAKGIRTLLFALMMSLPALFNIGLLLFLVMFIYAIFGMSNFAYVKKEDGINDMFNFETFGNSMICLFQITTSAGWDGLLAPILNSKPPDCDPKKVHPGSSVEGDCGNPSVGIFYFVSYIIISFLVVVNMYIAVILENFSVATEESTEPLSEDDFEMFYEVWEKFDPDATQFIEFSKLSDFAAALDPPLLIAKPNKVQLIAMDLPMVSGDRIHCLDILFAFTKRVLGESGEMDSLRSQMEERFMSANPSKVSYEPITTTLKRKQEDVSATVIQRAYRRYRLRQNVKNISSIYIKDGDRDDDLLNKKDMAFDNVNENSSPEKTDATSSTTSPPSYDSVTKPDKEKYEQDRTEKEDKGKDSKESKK
pIC50,IC50 [nM],SMILES
6.62,,"N#Cc1ccc(Oc2cc(F)c(S(=O)(=O)Nc3ncc(Cl)s3)cc2F)c(-c2cn[nH]c2)c1 [Example 771, N-(5-chloro-1,3-thiazol-2-yl)-4-[4-cyano-2-(1H-pyrazol-4-yl)phenoxy]-2,5-difluorobenzenesulfonamide]"
4.51,,"Cn1nccc1-c1cc(Cl)ccc1Oc1ccc(S(=O)(=O)Nc2ccc(C(F)(F)F)cn2)cc1C#N [Example 772, 4-[4-chloro-2-(1-methyl-1H-pyrazol-5-yl)phenoxy]-3-cyano-N-[5-(trifluoromethyl)pyridin-2-yl]benzenesulfonamide]"
8.16,,"O=S(=O)(Nc1ncns1)c1cc(Cl)c(Oc2cc(F)ccc2-c2ccn[nH]2)cc1F [Example 773, 5-chloro-2-fluoro-4-[5-fluoro-2-(1H-pyrazol-5-yl)phenoxy]-N-1,2,4-thiadiazol-5-ylbenzenesulfonamide]"
,>1000,"N#Cc1cc(S(=O)(=O)Nc2nccs2)ccc1Oc1ccc(-n2cc(F)cn2)cc1 [Example 774, 3-cyano-4-[4-(4-fluoro-1H-pyrazol-1-yl)phenoxy]-N-1,3-thiazol-2-ylbenzenesulfonamide]"
7.06,,"CC(C)(C)n1nccc1-c1cc(Cl)ccc1Oc1ccc(S(=O)(=O)Nc2ncns2)cc1C#N [Example 775, 4-[2-(1-tert-butyl-1H-pyrazol-5-yl)-4-chlorophenoxy]-3-cyano-N-1,2,4-thiadiazol-5-ylbenzenesulfonamide]"
5.60,,"Cc1nnc(NS(=O)(=O)c2ccc(Oc3ccc(Cl)cc3-c3ccnn3C)c(F)c2)s1 [Example 776, 4-[4-chloro-2-(1-methyl-1H-pyrazol-5-yl)phenoxy]-3-fluoro-N-(5-methyl-1,3,4-thiadiazol-2-yl)benzenesulfonamide]"
5.89,,"O=S(=O)(Nc1cscn1)c1cc(Cl)c(Oc2ccc(Cl)cc2-c2cnn[nH]2)cc1F [Example 777, 5-chloro-4-[4-chloro-2-(1H-1,2,3-triazol-5-yl)phenoxy]-2-fluoro-N--thiazol-4-ylbenzenesulfonamide]"
6.33,,"N#Cc1cc(S(=O)(=O)Nc2nccs2)ccc1Oc1cccc(-c2ccccc2)c1 [Example 778, 4-(biphenyl-3-yloxy)-3-cyano-N-1,3-thiazol-2-ylbenzenesulfonamide]"
6.68,,"Cn1nc(C(F)(F)F)cc1-c1ccc(F)c(Oc2ccc(S(=O)(=O)Nc3nccs3)cc2C#N)c1 [Example 779, 3-cyano-4-{2-fluoro-5-[1-methyl-3-(trifluoromethyl)-1H-pyrazol-5-yl]phenoxy}-N-1,3-thiazol-2-ylbenzenesulfonamide]"
7.49,,"Cn1nccc1-c1ccc(I)cc1Oc1ccc(S(=O)(=O)Nc2ncc(F)s2)cc1C#N [Example 780, 3-cyano-N-(5-fluoro-1,3-thiazol-2-yl)-4-[5-iodo-2-(1-methyl-1H-pyrazol-5-yl)phenoxy]benzenesulfonamide]"
7.66,,"O=S(=O)(Nc1ncns1)c1cc(F)c(Oc2ccc(F)cc2-c2ccn[nH]2)cc1F [Example 781, 2,5-difluoro-4-[4-fluoro-2-(1H-pyrazol-5-yl)phenoxy]-N-1,2,4-thiadiazol-5-ylbenzenesulfonamide]"
8.11,,"Cn1nccc1-c1cc(OC(F)(F)F)ccc1Oc1ccc(S(=O)(=O)Nc2nccs2)cc1C#N [Example 783, 3-cyano-4-[2-(1-methyl-1H-pyrazol-5-yl)-4-(trifluoromethoxy)phenoxy]-N-1,3-thiazol-2-ylbenzenesulfonamide]"
7.40,,"N#Cc1cc(S(=O)(=O)Nc2ncc(Cl)s2)ccc1Oc1ccc(F)cc1-c1cn[nH]c1 [Example 785, N-(5-Chloro-1,3-thiazol-2-yl)-3-cyano-4-[4-fluoro-2-(1H-pyrazol-4-yl)phenoxy]benzenesulfonamide]"
8.12,,"N#Cc1cc(S(=O)(=O)Nc2ncc(Cl)s2)ccc1Oc1ccc(Cl)cc1-c1cn[nH]c1 [Example 786, N-(5-Chloro-1,3-thiazol-2-yl)-3-cyano-4-[4-chloro-2-(1H-pyrazol-4-yl)phenoxy]benzenesulfonamide]"
8.14,,"Nc1cc(-c2cc(Cl)ccc2Oc2cc(F)c(S(=O)(=O)Nc3ncns3)cc2F)ccn1 [Example 787, 4-[2-(2-aminopyridin-4-yl)-4-chlorophenoxy]-2,5-difluoro-N-1,2,4-thiadiazol-5-ylbenzenesulfonamide]"
8.68,,"O=S(=O)(Nc1ncns1)c1cc(F)c(Oc2ccc(C(F)(F)F)cc2-c2ccn[nH]2)cc1F [Example 789, 2,5-difluoro-4-[2-(1H-pyrazol-5-yl)-4-(trifluoromethyl)phenoxy]-N-1,2,4-thiadiazol-5-ylbenzenesulfonamide]"

pIC50,IC50 [nM],SMILES
8.92,,"O=S(=O)(Nc1ncns1)c1cc(F)c(Oc2ccc(C(F)(F)F)cc2-c2cn[nH]c2)cc1F [Example 790, 2,5-difluoro-4-[2-(1H-pyrazol-4-yl)-4-(trifluoromethyl)phenoxy]-N-1,2,4-thiadiazol-5-ylbenzenesulfonamide]"
8.51,,"N#Cc1cc(S(=O)(=O)Nc2ncns2)ccc1Oc1ccc(OC(F)(F)F)cc1-c1ccn[nH]1 [Example 793, 3-cyano-4-[2-(1H-pyrazol-5-yl)-4-(trifluoromethoxy)phenoxy]-N-1,2,4-thiadiazol-5-ylbenzenesulfonamide]"
8.32,,"Nc1[nH]ncc1-c1cc(Cl)ccc1Oc1cc(F)c(S(=O)(=O)Nc2ncns2)cc1Cl [Example 794, 4-[2-(5-amino-1H-pyrazol-4-yl)-4-chlorophenoxy]-5-chloro-2-fluoro-N-1,2,4-thiadiazol-5-ylbenzenesulfonamide]"
8.34,,"Cn1nccc1-c1cc(OC(F)(F)F)ccc1Oc1ccc(S(=O)(=O)Nc2ncns2)cc1C#N [Example 795, 3-cyano-4-[2-(1-methyl-1H-pyrazol-5-yl)-4-(trifluoromethoxy)phenoxy]-N-1,2,4-thiadiazol-5-ylbenzenesulfonamide]"
8.68,,"O=S(=O)(Nc1ncns1)c1cc(Cl)c(Oc2ccc(Cl)cc2C2CCNCC2)cc1F [Example 796, 5-chloro-4-(4-chloro-2-piperidin-4-ylphenoxy)-2-fluoro-N-1,2,4-thiadiazol-5-ylbenzenesulfonamide]"
7.28,,"O=S(=O)(Nc1ccc(F)cn1)c1cc(Cl)c(Oc2ccc(C(F)(F)F)cc2C2CCNCC2)cc1F [Example 800, 5-Chloro-2-fluoro-N-(5-fluoropyridin-2-yl)-4-[2-piperidin-4-yl-4-(trifluoromethyl)phenoxy]benzenesulfonamide]"
8.32,,"Nc1n[nH]cc1-c1cc(Cl)ccc1Oc1cc(F)c(S(=O)(=O)Nc2nncs2)cc1Cl [Example 803, 4-[2-(5-amino-1H-pyrazol-4-yl)-4-chlorophenoxy]-5-chloro-2-fluoro-N-1,3,4-thiadiazol-2-ylbenzenesulfonamide]"
8.92,,"N#Cc1cc(S(=O)(=O)Nc2ncns2)ccc1Oc1cc(F)c(Cl)cc1-c1cn[nH]c1 [Example 804, 4-[4-chloro-5-fluoro-2-(1H-pyrazol-4-yl)phenoxy]-3-cyano-N-1,2,4-thiadiazol-5-ylbenzenesulfonamide]"
8.21,,"O=S(=O)(Nc1ncns1)c1cc(F)c(Oc2ccc(C(F)(F)F)cc2-c2ccnnc2)cc1F [Example 805, 2,5-difluoro-4-[2-pyridazin-4-yl-4-(trifluoromethyl)phenoxy]-N-1,2,4-thiadiazol-5-ylbenzenesulfonamide]"
8.27,,"CN1CC(n2nccc2-c2cc(F)ccc2Oc2cc(F)c(S(=O)(=O)Nc3ncns3)cc2Cl)C1 [Example 806, 5-Chloro-2-fluoro-4-{4-fluoro-2-[1-(1-methylazetidin-3-yl)-1H-pyrazol-5-yl]phenoxy}-N-1,2,4-thiadiazol-5-ylbenzenesulfonamide]"
7.82,,"CN1CC(n2nccc2-c2cc(F)ccc2Oc2cc(F)c(S(=O)(=O)Nc3cscn3)cc2Cl)C1 [Example 807, 5-Chloro-2-fluoro-4-{4-fluoro-2-[1-(1-methylazetidin-3-yl)-1H-pyrazol-5-yl]phenoxy}-N-1,3-thiazol-4-ylbenzenesulfonamide]"
8.15,,"O=S(=O)(Nc1cscn1)c1cc(Cl)c(Oc2ccc(F)cc2-c2ccnn2C2CNC2)cc1F [Example 808, 4-[2-(1-Azetidin-3-yl-1H-pyrazol-5-yl)-4-fluorophenoxy]-5-chloro-2-fluoro-N-1,3-thiazol-4-ylbenzenesulfonamide]"
7.42,,"N#Cc1cc(S(=O)(=O)Nc2cscn2)ccc1Oc1ccc(Cl)cc1-c1ccnn1C1CNC1 [Example 809, 4-[2-(1-azetidin-3-yl-1H-pyrazol-5-yl)-4-chlorophenoxy]-3-cyano-N-1,3-thiazol-4-ylbenzenesulfonamide]"
8.42,,"O=S(=O)(Nc1ncns1)c1cc(Cl)c(Oc2ccc(F)cc2-c2ccnn2C2CNC2)cc1F [Example 810, 4-[2-(1-azetidin-3-yl-1H-pyrazol-5-yl)-4-fluorophenoxy]-5-chloro-2-fluoro-N-1,2,4-thiadiazol-5-ylbenzenesulfonamide]"
8.29,,"Nc1cc(-c2cc(Cl)ccc2Oc2cc(F)c(S(=O)(=O)Nc3ccncn3)cc2Cl)ccn1 [Example 812, 4-[2-(2-aminopyridin-4-yl)-4-chlorophenoxy]-5-chloro-2-fluoro-N-pyrimidin-4-ylbenzenesulfonamide]"
8.21,,"Nc1cc(-c2cc(Cl)ccc2Oc2cc(F)c(S(=O)(=O)Nc3nncs3)cc2Cl)ccn1 [Example 814, 4-[2-(2-aminopyridin-4-yl)-4-chlorophenoxy]-5-chloro-2-fluoro-N-1,3,4-thiadiazol-2-ylbenzenesulfonamide]"

# Same assay, conditions: estimated IC50; hSCN9A HEK cells, PatchXpress platform; Examples 815-1040
row,pIC50,SMILES
1,9.22,"N#Cc1cc(S(=O)(=O)Nc2ncns2)ccc1Oc1ccc(I)cc1-c1cccc(CN2CCC2)c1 [Example 815, 4-{[3′-(azetidin-1-ylmethyl)-5-iodobiphenyl-2-yl]oxy}-3-cyano-N-1,2,4-thiadiazol-5-ylbenzenesulfonamide]"
2,7.96,"Cc1[nH]ncc1-c1cc(Cl)ccc1Oc1cc(F)c(S(=O)(=O)Nc2nncs2)cc1Cl [Example 816, 5-chloro-4-[4-chloro-2-(5-methyl-1H-pyrazol-4-yl)phenoxy]-2-fluoro-N-1,3,4-thiadiazol-2-ylbenzenesulfonamide]"

# From patent publication US8541588B2, “Sulfonamide derivatives” (Pfizer Limited, priority 2009, dated 2013)
